In patent publication US20210040061A1, “COMPOUND, POLYMER, AND ORGANIC MATERIAL” (Sony Corporation, priority 2018, published 2021):

Experiments:
[1] = Solubility measurement in acetone; conditions: ultrasonic stirring, visual
Experimental: When there was an undissolved portion of the compound, a small amount of acetone was added thereto, and then stirring was further conducted for 30 seconds. The above-mentioned work was repeated, and upon dissolution of the whole of the compound, the solubility was calculated from the total amount of the solvent used.

[2] = Transparency evaluation of resin compatible film with polyvinyl acetate (visual inspection); type: physicochemical; parameters: key: Good: Transparency is good.; Poor: Coloration is present; conditions: for Transparency: 3 μm film, 10 mg compound + 10 mg polyvinyl acetate, visual inspection; for evaluation of transparency: resin compatible film with PVAc
Source text: Several drops of each of these resin compositions were dropped onto a 2 cm square glass substrate, a film was formed by a spin coater, and acetone as a solvent was evaporated off, to form a resin compatible film (3 μm thick) of each compound. These films were confirmed to be transparent by visual inspection and were subjected to evaluation of transparency.
The criterion of transparency evaluation is as follows.
Good . . . Transparency is good.
Poor . . . Coloration is present.

[3] = Limit value (saturation amount) of dissolution of monomer in solvent of hologram recording photosensitive composition; type: physicochemical; conditions: hologram recording photosensitive composition with 8 g of acetone as solvent
Experimental: (§1) In Comparative Example 5, Hologram Recording Photosensitive Composition 50 was prepared by the same method as in Example 7 by using the same materials in the same amounts as in Example 7, except that 0.88 g of Compound 40-1 (the compound of Comparative Example 1) was used as a monofunctional photopolymerizable monomer. […] Note that the amount (0.88 g) in which Compound 40-1 was used is a limit value (saturation amount) of dissolution of the compound in a solvent.
as §1, with “6,” for “5,”, “60” for “50”, “1” for “0.88”, “40-2” for “40-1”, “2)” for “1)”, “(1” for “(0.88”
as §1, with “7,” for “5,”, “70” for “50”, “0.1” for “0.88”, “40-3” for “40-1”, “3)” for “1)”, “(0.1” for “(0.88”

[4] = Refractive index measurement (Abbe's refractometer, acetone solutions, analytical curve extrapolated); type: physicochemical; conditions: light of 589 nm, 25±1° C., extrapolated to volume fraction 1
Experimental: A refractive index measuring method will be described below.
Average refractive indices of the respective compounds to light of 589 nm at room temperature 25±1° C. were measured by an Abbe's refractometer (ER-1, produced by Erma, Inc.) and were plotted against volume fraction of each compound, to form analytical curves (the densities of the compounds were all 1.00 g/cm^3). The analytical curves were extrapolated, and the refractive index when the volume fraction of each compound is 1 was made to be a refractive index of each compound.

[5] = background statement; cited from earlier work

Compound | Solubility/wt % [1] [wt %] | Transparency [2] | limit value (saturation amount) of dissolution of the compound in a solvent [3] [g] | Refractive index (589 nm) [4] | evaluation of transparency [2] | refractive index [5]
C=C(C)C(=O)OCc1cc2ccccc2c2c1sc1ccc3ccccc3c12 [Comparative Example 1, reference compound] | <10 | Good | 0.88 | 1.73 | – | –
C=C(C)C(=O)OC(C)c1cc2ccccc2c2c1sc1ccc3ccccc3c12 (centres unmarked) [Comparative Example 2, reference compound] | <11 | Poor | 1 | 1.71 | Poor | –
C=Cc1cc2ccccc2c2c1sc1ccc3ccccc3c12 [Comparative Example 3, reference compound] | <1.5 | Poor | 0.1 | 1.8 | Poor | –
c1ccc2c(c1)ccc1sc3ccc4ccccc4c3c12 [Comparative Example 4, reference compound] | – | Good | – | 1.81 | – | –
C=C(C)C(=O)Oc1ccccc1CCc1cc2ccccc2c2c1sc1ccc3ccccc3c12 [Example 1] | >20 | Good | – | 1.8 | – | –
C=C(C)C(=O)Oc1cccc(CCc2cc3ccccc3c3c2sc2ccc4ccccc4c23)c1 [Example 2] | >20 | Good | – | 1.8 | – | –
c1ccc2c(c1)ccc1c2sc2ccc3ccccc3c21 [dinaphthothiophene] | – | – | – | – | – | 1.8

More lines, main results first:

Solubility/wt % [1] [wt %] | Transparency [2] | limit value (saturation amount) of dissolution of the compound in a solvent [3] [g] | Refractive index (589 nm) [4] | evaluation of transparency [2] | Compound | refractive index [5]
>20 | Good | – | 1.8 | – | C=C(C)C(=O)Oc1ccc(CCc2cc3ccccc3c3c2sc2ccc4ccccc4c23)cc1 [Example 3] | –
>20 | Good | – | 1.7 | – | C=C(CCCCCCCCCC)C(=O)Oc1ccccc1CCc1cc2ccccc2c2c1sc1ccc3ccccc3c12 [Example 4] | –
>20 | Good | – | 1.7 | – | C=C(C)C(=O)Oc1ccccc1CCc1cc2ccccc2c2c1sc1ccc3ccccc3c12 [Example 5] | –
>20 | Good | – | 1.81 | – | C=C(C)C(=O)Oc1ccc2ccccc2c1CCc1cc2ccccc2c2c1sc1ccc3ccccc3c12 [Example 6] | –
>20 | Good | – | 1.73 | – | C=C(C)C(=O)Oc1cccc(OC(=O)C(=C)C)c1CCc1cc2ccccc2c2c1sc1ccc3ccccc3c12 [Example 13] | –
>20 | Good | – | 1.72 | – | C=CC(=O)Oc1cccc(OC(=O)C=C)c1CCc1cc2ccccc2c2c1sc1ccc3ccccc3c12 [Example 14] | –
>20 | Good | – | 1.81 | – | C=C(C)C(=O)Oc1cc2ccccc2cc1CCc1cc2ccccc2c2c1sc1ccc3ccccc3c12 [Example 15] | –
